Results as given in EP4603105A1, “PHARMACEUTICAL COMPOSITION CONTAINING CYCLIC COMPOUND HAVING SELECTIVE KRAS INHIBITORY EFFECT AGAINST HRAS AND NRAS” (CHUGAI SEIYAKU KABUSHIKI KAISHA, priority 2022, dated 2024).
pIC50: −log10 of the molar value. Read-outs that look alike come from different tables or passages of the source. *1 amine or outer side, *2 acyl side, *3 side chain or, on linkers, in order; H or OH if unused. Where a SMILES comes first, the peptide text is derived from it. Bridges are numbered along the chain shown (N, C = ends). [ ]: non-standard residue; d: D form. The star is where a group is joined. hPhe(3-Cl-4-CF3) = N[C@@H](CCc1ccc(C(F)(F)F)c(Cl)c1)C(=O)O; NPrPhe(4-CF3) = CCCN[C@@H](Cc1ccc(C(F)(F)F)cc1)C(=O)O; X26 = CCCN([C@@H](Cc1ccc(F)cc1)C(=O)[*:2])[*:1]; NMeGly(cPent) = CN[C@H](C(=O)O)C1CCCC1; Pro(4,4-F2) = O=C(O)[C@@H]1CC(F)(F)CN1; NMeGly(cBu) = CN[C@H](C(=O)O)C1CCC1; NMeD = CN[C@@H](CC(=O)O)C(=O)O; NMeL = CN[C@@H](CC(C)C)C(=O)O; Morpholide = C1CN(*)CCO1; NMeA = CN[C@@H](C)C(=O)O; Ac5c = NC1(C(=O)O)CCCC1; Aze = O=C(O)[C@@H]1CCN1; Sar = CNCC(=O)O

Tests used:
[1] = target: GDP-bound NRAS wild-type protein (Homo sapiens, UniProt P01111); test: Binding to NRAS by surface plasmon resonance (SPR), KD and KD ratio to KRAS
How it was run: (§1)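 Single-cycle kinetics on GDP-loaded biotin-Avi RAS captured to ~100–300 RU; 75 s ascending injections, 100 µL/min, 30°C. HBS pH 7.4 + 10 mM MgCl2/10 µM GDP/4% DMSO. 1:1 fit, KD.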

[2] = target: HRAS wild-type protein (Homo sapiens, UniProt P01112); test: Binding to HRAS by surface plasmon resonance (SPR), KD and KD ratio to KRAS
How it was run: as §1

[3] = tested on: human lung cancer strain NCI-H441; assay type: cell-based
How it was run: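 Proliferation was scored by […] measured after the reagent was added to cultures kept at 37°C in 5% carbon dioxide.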

[4] = ratio of KD for GDP-bound NRAS wild-type protein to KD for KRAS
[5] = ratio of KD for HRAS wild-type protein to KD for KRAS
[6] = ratio of KD value for GDP-bound NRAS wild-type protein to KD value for KRAS (SPR)
[7] = ratio of KD value for HRAS wild-type protein to KD value for KRAS (SPR)

Chain of HRAS wild-type protein (P01112 whole entry): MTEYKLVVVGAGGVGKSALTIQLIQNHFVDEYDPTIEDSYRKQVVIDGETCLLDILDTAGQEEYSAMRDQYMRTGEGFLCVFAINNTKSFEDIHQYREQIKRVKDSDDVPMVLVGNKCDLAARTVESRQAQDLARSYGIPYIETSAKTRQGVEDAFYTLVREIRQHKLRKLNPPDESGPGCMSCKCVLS
Chain of GDP-bound NRAS wild-type protein (P01111 whole entry): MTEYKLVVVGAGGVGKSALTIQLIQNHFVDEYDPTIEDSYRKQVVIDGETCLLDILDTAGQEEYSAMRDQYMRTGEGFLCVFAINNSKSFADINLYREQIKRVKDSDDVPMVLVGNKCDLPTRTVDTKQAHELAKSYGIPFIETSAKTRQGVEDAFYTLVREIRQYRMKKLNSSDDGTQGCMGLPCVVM

SMILES | NRAS /KRAS [1, 4] | HRAS /KRAS [2, 5] | pIC50 [3] | pIC50 ([3]; NCI-H441 cells, 4 days, CellTiter-Glo, read-out: NCl-H441 IC50) | NRAS /KRAS ([1]; ratio of the KD value with respect to GDP-bound NRAS wild-type protein to the KD value with respect to KRAS) | HRAS /KRAS ([2]; ratio of the KD value with respect to HRAS wild-type protein to the KD value with respect to KRAS) | NRAS /KRAS [1, 6] | HRAS /KRAS [2, 7]
CCO[C@@H]1C[C@H]2C(=O)NC3(CC(F)(F)C3)C(=O)N(C)[C@@H](C3CCCC3)C(=O)N(C)[C@H](C(=O)N3CCOCC3)CC(=O)N(C)[C@@H](CC(C)C)C(=O)N[C@@H]([C@@H](C)CC)C(=O)N(C)CC(=O)N(C)[C@H]3C[C@H]4C[C@H]4CN(C3=O)[C@@H](Cc3ccc(C(F)(F)F)cc3)C(=O)N(C)CC(=O)N[C@@H](CCc3cc(F)c(C(F)(F)F)c(F)c3)C(=O)N2C1 [PP0831] | C (A compound having a KD ratio of 0.1 or more and less than 3 is denoted as C) | C (A compound having a KD ratio of 0.1 or more and less than 3 is denoted as C) | 8.43 |  |  |  |  | 
CCCN1C(=O)[C@@H]2CCN2C(=O)[C@H](C)N(C)C(=O)[C@H]([C@@H](C)CC)NC(=O)[C@H](C2CCC2)N(C)C(=O)C[C@@H](C(=O)N2CCOCC2)N(C)C(=O)[C@H](C2CCCC2)N(C)C(=O)C2(CCCC2)NC(=O)[C@@H]2CC(F)(F)CN2C(=O)[C@H](CCc2ccc(C(F)(F)F)c(Cl)c2)NC(=O)CN(C)C(=O)[C@@H]1Cc1ccc(C(F)(F)F)cc1 [PP0204] ([NMeGly(cBu)]I[NMeA][Aze][NPrPhe(4-CF3)][Sar][hPhe(3-Cl-4-CF3)][Pro(4,4-F2)][Ac5c][NMeGly(cPent)][NMeD]-Morpholide; lactam N-11) | C (A compound having a KD ratio of 0.1 or more and less than 3 is denoted as C) | C (A compound having a KD ratio of 0.1 or more and less than 3 is denoted as C) | 8.27 |  |  |  |  | 
CCC[C@H]1C(=O)N[C@@H]([C@@H](C)CC)C(=O)N(C)CC(=O)N(C)[C@H]2C/C=C\CCN(C2=O)[C@@H](Cc2ccc(C(F)(F)F)cc2)C(=O)N(C)CC(=O)N[C@@H](CCc2cc(F)c(Cl)c(OC)c2)C(=O)N2C[C@H](OCC)C[C@H]2C(=O)NC2(CC(C)(C)C2)C(=O)N(C)[C@@H](C2CCCC2)C(=O)N(C)[C@H](C(=O)N(C)C)CC(=O)N1C [PP2864] | A (a compound having 10 or more and less than 20 is denoted as A) | A (a compound having 10 or more and less than 20 is denoted as A) |  | 6.91 |  |  |  | 
CCO[C@@H]1C[C@H]2C(=O)NC3(CC(C)(C)C3)C(=O)N(C)[C@@H](C3CCCC3)C(=O)N(C)[C@H](C(=O)N3CCCC3)CC(=O)N(C)[C@H]3CCCC/C=C/c4ccc(cc4)C[C@@H](C(=O)N(C)CC(=O)N[C@@H](CCc4ccc(Cl)c(Cl)c4)C(=O)N2C1)N1CC/C=C\C[C@@H](C1=O)N(C)C(=O)CN(C)C(=O)[C@H]([C@@H](C)CC)NC3=O [PP2593] | A (a compound having 10 or more and less than 20 is denoted as A) | A (a compound having 10 or more and less than 20 is denoted as A) | 7.94 |  |  |  |  | 
CC[C@H](C)[C@@H]1NC(=O)[C@H](CC(C)C)N(C)C(=O)C[C@@H](C(=O)N2CCOCC2)N(C)C(=O)[C@H](C2CCCC2)N(C)C(=O)C2(CC2)NC(=O)[C@@H]2CCCN2C(=O)[C@H](CCc2cc(F)c(C(F)(F)F)c(F)c2)NC(=O)CN(C)C(=O)[C@H](Cc2ccc(C(F)(F)F)cc2)N2CCCCC[C@@H](C2=O)N(C)C(=O)CN(C)C1=O [PP0496] |  |  | 6.40 |  | B (a compound having 3 or more and less than 10 is denoted as B) | B (a compound having 3 or more and less than 10 is denoted as B) |  | 
CC[C@H](C)[C@@H]1NC(=O)[C@H](CC(F)(F)F)N(C)C(=O)C[C@@H](C(=O)N(C)C)N(C)C(=O)[C@H](C2CCCC2)N(C)C(=O)C2(CC(C)(C)C2)NC(=O)[C@@H]2CCCN2C(=O)[C@H](CCc2cc(F)c(C(F)(F)F)c(F)c2)NC(=O)CN(C)C(=O)[C@H](Cc2ccc(C(F)(F)F)cc2)N2CC/C=C\C[C@@H](C2=O)N(C)C(=O)CN(C)C1=O [PP1722] |  |  | 8.74 |  |  |  | AA (a compound having 20 or more is denoted as AA) | A (a compound having 10 or more and less than 20 is denoted as A)
CCO[C@@H]1C[C@H]2C(=O)NC3(CCC3)C(=O)N(C)[C@@H](C3CCCC3)C(=O)N(C)[C@H](C(=O)N(C)C)CC(=O)N(C)[C@@H](CC(F)F)C(=O)N[C@@H]([C@@H](C)CC)C(=O)N(C)CC(=O)N(C)[C@H]3C/C=C\CCN(C3=O)[C@@H](Cc3ccc(C(F)(F)F)cc3)C(=O)N(C)CC(=O)N[C@@H](CCc3cc(F)c(C(F)(F)F)c(F)c3)C(=O)N2C1 [PP1120] | A (a compound having 10 or more and less than 20 is denoted as A) | A (a compound having 10 or more and less than 20 is denoted as A) | 7.69 |  |  |  |  | 
CCCN1C(=O)CN(C)C(=O)CN(C)C(=O)[C@H]([C@@H](C)CC)NC(=O)[C@H](CC(C)C)N(C)C(=O)C[C@@H](C(=O)N2CCOCC2)N(C)C(=O)[C@H](C2CCCC2)N(C)C(=O)C2(CCCC2)NC(=O)[C@@H]2CCCN2C(=O)[C@H](CCc2ccc(C(F)(F)F)c(Cl)c2)NC(=O)CN(C)C(=O)[C@@H]1Cc1ccc(F)cc1 [PP0214] ([NMeL]I[Sar][Sar][X26][Sar][hPhe(3-Cl-4-CF3)]P[Ac5c][NMeGly(cPent)][NMeD]-Morpholide; lactam N-11) | B (a compound having 3 or more and less than 10 is denoted as B) | C (A compound having a KD ratio of 0.1 or more and less than 3 is denoted as C) | 8.27 |  |  |  |  | 
CCO[C@@H]1C[C@H]2C(=O)NC3(CC(C)(C)C3)C(=O)N(C)[C@@H](C3CCCC3)C(=O)N(C)[C@H](C(=O)N(C)C)CC(=O)N(C)[C@H]3CCCCCc4ccc(cc4)C[C@@H](C(=O)N(C)CC(=O)N[C@@H](CCc4ccc(Cl)c(Cl)c4)C(=O)N2C1)N1CC/C=C\C[C@@H](C1=O)N(C)C(=O)CN(C)C(=O)[C@H]([C@@H](C)CC)NC3=O [PP3076] | AA (a compound having 20 or more is denoted as AA) | A (a compound having 10 or more and less than 20 is denoted as A) | 8.39 |  |  |  |  | 
CCO[C@@H]1C[C@H]2C(=O)NC3(CCC3)C(=O)N(C)[C@@H](C3CCCC3)C(=O)N3CCC[C@@H]3CC(=O)N(C)[C@@H](CC3CC3)C(=O)N[C@@H]([C@@H](C)CC)C(=O)N(C)CC(=O)N(C)[C@H]3C/C=C\CCN(C3=O)[C@@H](Cc3ccc(C(F)(F)F)cc3)C(=O)N(C)CC(=O)N[C@@H](CCc3ccc(C(F)(F)F)c(OC)c3)C(=O)N2C1 [PP1616] |  |  | 7.47 |  |  |  | B (a compound having 3 or more and less than 10 is denoted as B) | B (a compound having 3 or more and less than 10 is denoted as B)
CCCN(C)C(=O)[C@@H]1CC(=O)N(C)[C@@H](CC)C(=O)N[C@@H]([C@@H](C)CC)C(=O)N(C)CC(=O)N(C)[C@H]2C/C=C\CCN(C2=O)[C@@H](Cc2ccc(C(F)(F)F)cc2)C(=O)N(C)CC(=O)N[C@@H](CCc2cc(F)c(C(F)(F)F)c(F)c2)C(=O)N2C[C@H](OCC)C[C@H]2C(=O)NC2(CC(C)(C)C2)C(=O)N(C)[C@@H](C2CCCC2)C(=O)N1C [PP1670] |  |  | 8.17 |  |  |  | A (a compound having 10 or more and less than 20 is denoted as A) | A (a compound having 10 or more and less than 20 is denoted as A)
CCO[C@@H]1C[C@H]2C(=O)N(C)C3(CCC3)C(=O)N(C)[C@@H](C3CCCC3)C(=O)N(C)[C@H](C(=O)N(C)C)CC(=O)N(C)[C@@H](CC)C(=O)N[C@@H]([C@@H](C)CC)C(=O)N(C)CC(=O)N(C)[C@H]3C/C=C\CCN(C3=O)[C@@H](Cc3ccc(C)cc3)C(=O)N(C)CC(=O)N[C@@H](CCc3cc(F)c(C(F)(F)F)c(F)c3)C(=O)N2C1 [PP1781] |  |  | 8.68 |  |  |  | A (a compound having 10 or more and less than 20 is denoted as A) | B (a compound having 3 or more and less than 10 is denoted as B)
CC[C@H](C)[C@@H]1NC(=O)[C@H](CC(F)(F)F)N(C)C(=O)C[C@@H](C(=O)N(C)C)N(C)C(=O)[C@H](C2CCCC2)N(C)C(=O)C2(CC(C)(C)C2)NC(=O)[C@@H]2C[C@@H](F)CN2C(=O)[C@H](CCc2cc(F)c(C(F)(F)F)c(F)c2)NC(=O)CN(C)C(=O)[C@H](Cc2ccc(C(F)(F)F)cc2)N2CC/C=C\C[C@@H](C2=O)N(C)C(=O)CN(C)C1=O [PP1688] |  |  | 8.82 |  |  |  | A (a compound having 10 or more and less than 20 is denoted as A) | A (a compound having 10 or more and less than 20 is denoted as A)
CCO[C@@H]1C[C@H]2C(=O)NC3(CC(C)(C)C3)C(=O)N(C)[C@@H](C3CCCC3)C(=O)N(C)[C@H](C(=O)N(C)C)CC(=O)N(C)[C@@H](CC(F)F)C(=O)N[C@@H]([C@@H](C)CC)C(=O)N(C)CC(=O)N(C)[C@H]3C/C=C\CCN(C3=O)[C@@H](Cc3ccc(C(F)(F)F)cc3)C(=O)N(C)CC(=O)N[C@@H](CCc3ccc(C(F)(F)F)c(Cl)c3)C(=O)N2C1 [PP1747] |  |  | 8.64 |  |  |  | A (a compound having 10 or more and less than 20 is denoted as A) | A (a compound having 10 or more and less than 20 is denoted as A)
